Data as given in US11198869B2, “Angelman syndrome antisense treatment” (The Texas A&M University System, priority 2017, dated 2021).
Read-outs that look alike come from different tables or passages of the source.

Assays:
UBE3A-AS [1] = assay: UBE3A-AS steady state RNA (TaqMan qRT-PCR) in GABAergic iPSC-derived neurons; assay type: cell-based, human; conditions: for IC50 Ratio relative to ASO-4.4.PS.L: equivalence; for IC50 Ratio relative to ASO-4.4.PS.L / Limit Exceeded (equivalence of IC50 relative to ASO-4.4.PS.L): two one-sided tests; for Relative Potency: relative to ASO-4.4.PS.L = 1
UBE3A-AS [2] = assay: as above; assay type: cell-based, human; conditions: for IC50 / Relative Potency: optimized ASOs; for IC50: 3-parameter logistic; for Relative Potency: relative to ASO 4.S = 1
Protocol: Human-specific ASOs were then designed to target this region, which included four ASOs targeting non-polymorphic regions in human and regions conserved (100%) with macaque (Rhesus and Cynomolgus) (Table 7 and FIG. 3A). Human induced pluripotent stem cell (iPSC) neural precursor cells were differentiated into GABAergic neurons for 14 DIV and then treated with a control ASO [ASO-C (10 μM, n=3)], Topotecan [Topo (1 μM, n=2)], and six ASOs targeting UBE3A-AS [ASO-1, ASO-2, ASO-3, ASO-4, ASO-5, and ASO-6 (10 μM, n=3)]. Additionally, an ASO targeting an intronic region downstream of SNORD109B was included (ASO-7). Six days post-treatment (20 DIV), RNA was isolated from the neurons and the steady state RNA levels of UBE3A-AS and UBE3A were estimated relative to the control treatment (FIG. 3B).
The potency of ASO-4 was further examined given its effect on UBE3A-AS RNA levels. GABAergic iPSC-derived neurons were treated at 14 DIV with a 10-point ½ log dose response curve of ASO-4 and Topotecan, as a positive control and for comparisons between treatment [1 nM, 3 nM, 10 nM, 30 nM, 100 nM, 300 nM, 1 μM, 3 μM, 10 μM, and 30 μM (ASO-4, n=6; Topotecan, n=2)]. At 20 DIV, the steady state RNA levels of UBE3A-AS were measured and dose response curves fitted to estimate the IC50 and Emax (i.e., maximum UBE3A-AS inhibition) (Table 9 and FIG. 4A). […]
Additional ASOs targeting the 5′-end of UBE3A-AS were then designed to optimize the target sequences of ASO-4 (ASO-4.1, ASO-4.2, ASO-4.3, and ASO-4.4) as well as two other target regions, ASO-3 (ASO-3.1 and ASO-3.2) and ASO-6 (ASO-6.1) (Table 11). Additionally, ASO-4 was manufactured at two different vendors for comparative purposes (ASO-4.S, Sigma; ASO-4.I, Integrated DNA Technologies). Human iPSC-derived neurons (GABAergic) were treated at 14 DIV with a […] ½ log dose curve of ASO-3.1, ASO-3.2, ASO-4.S, ASO-4.I, ASO-4.1, ASO-4.2, ASO-4.3, ASO-4.4, and ASO-6.1 [30 nM, 100 nM, 300 nM, 1 μM (n=6)]. At 20 DIV, the IC50 and Emax of each ASO was estimated as described above (FIG. 5A-B and Table 12). […] No significant difference was observed between ASO-4.S and ASO-4.I.
The potency of ASO-4 and ASO-6.1 was further examined in iPSC-derived neurons at a later time point in differentiation. GABAergic iPSC-derived neurons were treated at 29 DIV with a 10-point ½ log dose response curve of ASO-4 and ASO-6.1 [1 nM, 3 nM, 10 nM, 30 nM, 100 nM, 300 nM, 1 μM, 3 μM, 10 μM, and 30 μM (n=3)]. At 35 DIV, the IC50 and Emax of each ASO was estimated as described above (FIG. 5C-D and Table 14). The dose response curves of ASO-4 and ASO-6.1 were not similar (Parallelism test: F(3,172)=22.7, p<0.0001).
GABAergic and glutamatergic induced pluripotent stem cell (iPSC) derived neural precursor cells (NRC-100-010-001 and GNC-301-030-001, Cellular Dynamics International, Madison Wis.) were differentiated into neurons according to the manufactures protocol. Briefly, neural precursor cells were thawed and resuspended in chemically defined medium and added to sterile-culture plates coated with poly-D-lysine and laminin. The medium was replaced 24 hr after plating and then one-half of the medium was replaced every 3-5 days afterwards.
For cultured iPSC-derived neurons, RNA isolation and cDNA synthesis were performed using the Cell-to-CT kit (Thermo Fisher Scientific) in a lysate volume of 55 μl.
The steady state RNA levels of target transcripts were measured using TaqMan quantitative reverse-transcription PCR (qRT-PCR) assays. Total reaction volume was 10 uL, including 2 μl of cDNA, 1× Gene Expression Master mix (4369016, Thermo Fisher Scientific, Waltham, Mass.), and 1× TaqMan primer assay (Thermo Fisher Scientific). Cycling conditions were 2 minutes at 50° C., 10 minutes at 95° C., and 40 cycles of 15 seconds at 95° C. and 1 minute at 60° C., with readings taken at the 60° C. step of every cycle. […]

[3] = candidate ASOs, 18 DIV to 24 DIV
[4] = Cluster 1 ASOs, 18 DIV to 24 DIV, parallel model, 4 Parameter logistic (Hill)
[5] = candidate ASOs, 18 DIV to 24 DIV, 4-parameter logistic (Hill)
[6] = candidate ASOs, treated 18 DIV, RNA 24 DIV, 10-point dose curve, n=2, full model, 4-parameter logistic (Hill)
[7] = 14 DIV to 20 DIV, parallel model, read-out: IC50 (M), UBE3A-AS
[8] = treated 14 DIV, RNA 20 DIV, 5-point dose curve 30 nM-3 μM, full model, read-out: IC50 Estimate, UBE3A-AS

Row | Substance | IC50 (UBE3A-AS [1]; [6]) [nM] | IC50 (UBE3A-AS [2]; [7]) [M] | IC50 (UBE3A-AS [2]; [8]) [M] | 30 μM (Mean), normalized UBE3A-AS RNA level relative to vehicle (UBE3A-AS [1]; [3]) | Emax (normalized UBE3A-AS RNA level relative to vehicle) (UBE3A-AS [1]; [5]) | 3 μM (Mean), Emax, normalized UBE3A-AS RNA level relative to vehicle (UBE3A-AS [2]; treated 14 DIV, RNA 20 DIV) | Relative Potency (UBE3A-AS [2]; parallel model) | also measured
1 | C^O*U^O-G^O*G^O-t*g-t*c-a*a-c*a-a*g-C^O*C^O-A^O*A^o [ASO-6.1.PO-2.O] |  |  |  | 0.3 |  |  |  | 
2 | T^M*A^M*G^M*A^M*A^M-t*g*g*c*a*c*a*t*c*t-5mC^M*T^M*T^M*G^M*G^M [ASO-4.0.PO-1.M] | 278 |  |  | 0.05 | 0.02 |  |  | IC50 (UBE3A-AS [1]; [4]): 278 nM; IC50 Ratio relative to ASO-4.4.PS.L (UBE3A-AS [1]; Cluster 1 ASOs): 0.87; Relative Potency (UBE3A-AS [1]; Cluster 1 ASOs, parallel model): 0.2; Limit Exceeded (equivalence of IC50 relative to ASO-4.4.PS.L) (UBE3A-AS [1]; Cluster 1 ASOs): Lower
3 | T^M*A^M-G^M*A^M-A^M*t-g*g-c*a-c*a-t*c-t*5mC^M*T^M*T^M-G^M*G^M [ASO-4.0.PO-2.M] |  |  |  | 0.5 |  |  |  | 
4 | U^O*A^O*G^O*A^O*A^O-t*g*g*c*a*c*a*t*c*t-C^O*U^O*U^O*G^O*G^o [ASO-4.0.PO-1.O] | 766 |  |  | 0.1 | 0.05 |  |  | 
5 | U^O*U^O*G^O*A^O*g*t*g*g*t*g*t*c*a*g*U^O*U^O*U^O*C^O [ASO-3.2] |  | 1.85e-06 | 1.88e-06 |  |  | 0.44 | 0.81 | 
6 | U^O*A^O-G^O*A^O-A^O*t-g*g-c*a-c*a-t*c-t*C^O-U^O*U^O-G^O*G^o [ASO-4.0.PO-2.O] | 130000 |  |  | 0.6 | −0.3 |  |  | 
7 | G^O*U^O*U^O*G^O*a*g*t*g*g*t*g*t*c*a*G^O*U^O*U^O*U^O*C^O [ASO-3.1] |  | 2.81e-06 | 2.98e-06 |  |  | 0.51 | 0.53 | 

Further lines, with some results ahead:

Row | IC50 (UBE3A-AS [1]; [6]) [nM] | IC50 (UBE3A-AS [2]; [7]) [M] | IC50 (UBE3A-AS [2]; [8]) [M] | Substance | 30 μM (Mean), normalized UBE3A-AS RNA level relative to vehicle (UBE3A-AS [1]; [3]) | Emax (normalized UBE3A-AS RNA level relative to vehicle) (UBE3A-AS [1]; [5]) | 3 μM (Mean), Emax, normalized UBE3A-AS RNA level relative to vehicle (UBE3A-AS [2]; treated 14 DIV, RNA 20 DIV) | Relative Potency (UBE3A-AS [2]; parallel model) | also measured
8 | 300 |  |  | T^M*A^M*G^M*A^M*A^M*t*g*g*c*a*c*a*t*c*t*5mC^M*T^M*T^M*G^M*G^M [ASO-4.0.PS.M] | 0.05 | 0.05 |  |  | IC50 (UBE3A-AS [1]; [4]): 262 nM; IC50 Ratio relative to ASO-4.4.PS.L (UBE3A-AS [1]; Cluster 1 ASOs): 0.86; Relative Potency (UBE3A-AS [1]; Cluster 1 ASOs, parallel model): 0.2; Limit Exceeded (equivalence of IC50 relative to ASO-4.4.PS.L) (UBE3A-AS [1]; Cluster 1 ASOs): Lower
9 | 532 |  |  | C^O*U^O*G^O*G^O*t*g*t*c*a*a*c*a*a*g*C^O*C^O*A^O*A^o [ASO-6.1.PS.O] | 0.05 | −0.2 |  |  | IC50 (UBE3A-AS [1]; [4]): 432 nM; IC50 Ratio relative to ASO-4.4.PS.L (UBE3A-AS [1]; Cluster 1 ASOs): 0.83; Relative Potency (UBE3A-AS [1]; Cluster 1 ASOs, parallel model): 0.1; Limit Exceeded (equivalence of IC50 relative to ASO-4.4.PS.L) (UBE3A-AS [1]; Cluster 1 ASOs): Lower
10 | 1270 |  |  | U^O*A^O*G^O*A^O*A^O*t*g*g*c*a*c*a*t*c*t*C^O*U^O*U^O*G^O*G^o [ASO-4.0.PS.O] | 0.1 | 0.06 |  |  | 
11 |  | 1.96e-06 | 2.03e-06 | U^O*A^O*G^O*A^O*a*t*g*g*c*a*c*a*t*c*U^O*C^O*U^O*U^O*G^O [ASO-4.3] |  |  | 0.40 | 0.76 | 
12 | 1890 |  |  | T^L*G^L*G^L-t*g*t*c*a*a*c*a*a*g-5mC^L*5mC^L*A^L*A^L [ASO-6.1.PO-1.L] | 0.2 | 0.03 |  |  | 
13 | 734 |  |  | T^L*G^L-G^L*t-g*t-c*a-a*c-a*a-g*5mC^L-5mC^L-A^L*A^L [ASO-6.1.PO-2.L] | 0.4 | 0.3 |  |  | 
14 |  | 1.24e-06 | 1.08e-06 | A^O*G^O*A^O*A^O*t*g*g*c*a*c*a*t*c*t*C^O*U^O*U^O*G^O*G^O [ASO-4.2] |  |  | 0.31 | 1.21 | 
15 |  | 2.04e-06 | 2.11e-06 | A^O*G^O*A^O*A^O*t*g*g*c*a*c*a*t*c*t*C^O*U^O*U^O*G^O [ASO-4.4] |  |  | 0.44 | 0.73 | 
16 |  |  | 2.27e-06 | A^O*U^O*A^O*G^O*A^O*a*t*g*g*c*a*c*a*t*c*U^O*C^O*U^O*U^O*G^O [ASO-4.1] |  |  | 0.42 |  | 
